The record followed here is patent EP2769722A1 (Ruprecht-Karls-Universität Heidelberg, priority 2013, dated 2014).

SMILES strings stand for the structures. pIC50: −log10 of the molar value. Structures can show the parent of a compound that is named as a salt. Bounds are passed on as bounds.

The pIC50 is the negative decadic logarithm of the IC50, by convention in mol/L.

For the assay, the target named is T1, CA (Human immunodeficiency virus type 1 group M subtype B, UniProt P12493).
T1 construct: a fusion protein of CA with glutathione-S-transferase (CA-GST)
Nature of the assay: AlphaScreen: inhibition of CAI-biotin peptide binding to CA-GST. Set-up: species or system HIV-1. To be noted: inhibition of CAI binding to CA (CA-GST fusion); compounds screened at 0.5-100 µM; read-out: α screen IC50. The procedure: The AlphaScreen experiments are performed using Perkin Elmer Enspire plate reader in white 96-well ProxiPlates and PBS supplemented with 0.05% Tween20, 2mM DTT, 2% DMSO. First, Streptavidin-coated Donor beads are used to capture the CAI-biotin peptide. In the other solution, a fusion protein of CA with glutathione-S-transferase (CA-GST) is mixed with GSH Acceptor beads. Both mixtures were incubated and then mixed together. To test the ability of prepared organic compounds to inhibit the CAI binding to CA, they are screened at concentrations between 0.5-100 µM and IC50 values are calculated from the influenced signals.
Upon illumination by laser at 680 nm, Donor beads containing the photosensitizer phthalocyanine convert ambient oxygen to an excited form of singlet oxygen ^1O2. Singlet oxygen can within its half-life of ∼ 4µs diffuse approximately 200 nm in solution. If an Acceptor bead is within that proximity, which is mostly upon CA:CAI interaction, energy is transferred from the singlet oxygen to thioxene derivates within the Acceptor and signal at 520 - 620 nm is emitted. […] Table 4: Synthesized and tested compounds
Background: In Alpha technology, singlet oxygen from a donor bead excites a nearby acceptor bead.
Consider `Fc1ccc(Nc2cc(-c3cccnc3Cl)ncn2)cc1F` [KP-374, 6-(2-Chloropyridin-3-yl)-N-(3,4-difluorophenyl)pyrimidin-4-amine hydrochloride], for which the pIC50 is under 4.00.
To `Cn1nnc2cc(Nc3cc(-c4cccnc4Cl)ncn3)ccc21` [KP-375, N-[6-(2-Chloropyridin-3-yl)pyrimidin-4-yl]-1-methyl-1H-benzotriazol-5-amine hemihydrochloride] belongs under 4.00; to `COc1cc(Nc2cc(-c3cccnc3Cl)ncn2)cc(OC)c1OC` [KP-377, 6-(2-Chloropyridin-3-yl)-N-(3,4,5-trimethoxyphenyl)pyrimidin-4-amine hydrochloride], under 4.00.
In the case of `Cc1ccc(NC(=O)c2cccc(C(F)(F)F)c2)cc1Nc1cc(-c2cccnc2Cl)ncn1` [KP-380, N-(3-(6-(2-chloropyridin-3-yl)pyrimidin-4-ylamino)-4-methylphenyl)-3-(trifluoromethyl)benzamide hydrochloride], the pIC50 is under 4.00.
To `Cc1ccc(NC(=O)c2cccc(C(F)(F)F)c2)cc1Nc1ccnc(-c2cncc(Br)c2)n1` [KP-384, N-(3-(2-(5-bromopyridin-3-yl)pyrimidin-4-ylamino-4-methylphenyl)-3-(trifluoromethyl)benzamide hydrochloride] belongs under 4.00; to `Cc1ccc(NC(=O)c2cccc(C(F)(F)F)c2)cc1Nc1ccnc(-c2cccnc2)n1` [KP-385, N-(3-(2-(pyridin-3-yl)pyritnidin-4-ylamino)-4-methylphenyl)-3-(trifluoromethyl)benzamide hydrochloride], under 4.00; to `CCOC(=O)c1ccc(Nc2ccnc(-c3cccnc3)n2)cc1Cl` [hydrochloride], 4.51.
